From patent publication US10077446B2, “Glucan-encapsulated siRNA for treating type 2 diabetes mellitus” (The United States of America, as represented by THE …, priority 2013, dated 2018)

Tests used:
[1] = test system: RAW264.7 macrophages; test: Proinflammatory signaling in cultured RAW264.7 macrophages; assay type: cell-based, mouse; conditions: 4 h
Method: (§1) Mouse RAW264.7 macrophages (ATCC, Manassas, Va.) were cultured as previously described (Liu, et al. 2003 J Biol Chem 278:45034-45039) and were either treated during 4 hours with various concentrations of AEA (0.1, 0.5, 1, and 10 μM) and/or JD5037 (100 nM) or treated with 30 ng/mL of IL-1β (Abcam Ab9723). Mouse MIN6 insulinoma cells were a gift from NIDDK and were cultured in low glucose DMEM (Gibco 11885) supplemented with 15% FBS (BenchMark 100-006) and 1% antibiotic antimycotic cocktail (Invitrogen 15240-096). Cells were either treated during 4 hours with various concentrations of AEA (0.5, 1 and 5 μM) or treated with 30 ng/mL of IL-1β (Abcam Ab9723).
(§2) For both cell types, medium was collected and immediately frozen in liquid nitrogen. Cells were washed twice in ice-cold sterile PBS before harvesting. EC (endocannabinoid) levels were determined as previously 3, secretion of IL-1β, IL-18, TNF-α and MCP-1 in the medium were determined using ELISA kits (Biosensis BEK-2151-2P, Uscn Life Science & Technology Company E90064Mu, Biosensis BEK-2102-2P, Uscn Life Science & Technology Company E90087Mu, respectively).
(§3) Total mRNA from the liver, pancreas and kidney were extracted with Trizol (Invitrogen), while total mRNA from cells was extracted using RNEASY™ Mini Kit (Qiagen). All extractions were followed by DNase I treatment (Invitrogen). Total mRNA was reverse-transcribed using the ISCRIPT™ cDNA kit (Bio-Rad). Real-time PCR was performed as described previously (Jourdan, et al. 2010 Diabetes 59:926-934) in a 96-well plate using a STEPONEPLUS™ real time PCR system (Applied Biosystems). QUANTITECT™ Primer Assays were used to detect gene expression (Table 3, which lists the primers used for rat and mice (tissue)). Expression of the gene of interest is reported as a relative value comparing it to the geometric average of 18S, L19, L38 and TATA box binding protein expression.

[2] = test system: MIN6 insulinoma cells; test: Cytokine, apoptotic gene, insulin and CB1R expression in MIN6 insulinoma cells; assay type: cell-based, mouse
Method: as §1, §2
MIN6 cells were treated either with vehicle, IL-1β (30 ng/mL), IL1R antagonist (10 ng/mL) for 3 hours or pre-treated 1 h with IL1R antagonist (10 ng/mL) followed by 3 h incubation with IL-1β (30 ng/mL). […] Blot quantification was performed using the gel analysis options of image J software.
as §3

[3] = test system: Zucker diabetic fatty (ZDF) rats; test: 28-day oral JD5037 treatment of 8-week-old diabetic ZDF rats; assay type: in vivo, rat
From the text: Zucker diabetic fatty (ZDF) rats were used to assess the role of endocannabinoids and CB1R in glycemic control and β-cell loss Animal protocols were approved by the Institutional Animal Care and Use Committee of the NIAAA, NIH. Male ZDF rats with their lean controls were obtained from Charles River Laboratories (Wilmington, Mass. 01887, USA). Rats were individually housed and maintained under a 12-h light/dark cycle and fed ad libitum with a standard laboratory diet (STD, NIH-31 rodent diet).
ZDF rats received JD5037 or vehicle (4% DMSO+1% Tween 80 in PBS) by oral gavage according to 2 different protocols. JD5037 was synthesized and its pharmacological properties analyzed as described earlier (Tam, et al. 2012 Cell Metab 16, 167-179). […]
(§4) In the first one, 8-week old diabetic ZDF rats were given 3 mg/kg JD5037 or vehicle for 28 days with lean controls receiving vehicle only. In the second protocol, similar treatment was started in 6-week old pre-diabetic ZDF rats and age-matched lean controls, and treatment continued for 12 weeks until the age of 18 weeks. Body weight and food intake were monitored daily. At the end of treatment in both protocols, rats were sacrificed by decapitation, the brain, liver, kidney, pancreas and combined fat pads were removed, weighed, and snap-frozen in liquid nitrogen or fixed in formalin, and trunk blood was collected for determining endocrine and biochemical parameters. Adiposity index was defined as the combined weight of the epidydimal, retroperitoneal and inguinal fat pads, expressed as % of total body weight. In the second protocol, blood samples were taken weekly to assess the progression of T2DM by measuring blood glucose and monthly to measure insulin and c-peptide levels.
Blood glucose levels were determined using the Elite glucometer (Bayer, Pittsburgh, Pa.). […] Plasma insulin was measured using the Ultra Sensitive rat Insulin ELISA kit (Crystal Chem Inc). Hemoglobin A1c was determined using the Rat Hemoglobin A1c (HbA1c) assay kit (Crystal Chem) and c-peptide was quantified by ELISA (C-peptide (rat) ELISA, ALPCO). Serum leptin and adiponectin were determined by ELISA (B-Bridge International). α-amylase, lipase, and uric acid concentrations were determined using commercially available colorimetric kits (BioAssay Systems). TNF-α and IL-1β were determined using TNF-α ELISA Kit (for Lysates) (RayBiotech, Inc.) and IL1β Rat ELISA Kit (Abeam), respectively.
To determine intra-hepatic triglyceride and cholesterol content, liver tissue was extracted as described previously (Folch, et al. 1957 J Biol Chem 226:497-509). After extraction, 0.5 ml of organic phase was transferred to a clean tube containing 1 ml of 2% Triton X-100 in chloroform and dried using nitrogen. The residue was re-solubilized in 1 ml of distilled water and used for triglycerides content using EnzyChrom™ Triglyceride Assay Kit.
Pancreas was fixed in 10% neutral buffered formalin (NBF), embedded in paraffin and sectioned ([…]) onto glass slides. […] For detection, secondary Ab coupled to FITC or PE were used (Table 2). Images were viewed with a Fluoview FV10i confocal microscope system (Olympus). […]

[4] = test system: Zucker diabetic fatty (ZDF) rats; test: Hyperinsulinemic euglycemic clamp in ZDF rats; assay type: in vivo, rat
Method: Clamps and glucose tracer analyses in conscious, cannulated rats were performed as described: right jugular vein of 3 rats per group was catheterized a week prior to the experiment, and clamps were performed by continuous infusion of insulin at 3 mU/kg/min and co-infusion of 3H-D-glucose to maintain euglycemia. The protocol for radioactive clamps to evaluate glucose fluxes was adapted from Buettner, et al. (Buettner, et al. 2005 J Clin Invest 115:1306-1313). 3H-D-glucose (Perkin Elmer) was first infused at 0.8 μCi/min for one minute and then at 0.04 μCi/min for 2 h prior to insulin infusion, and the tritiated glucose infusion was pursued during the rest of the experiment at the same rate. 10 μl of blood were sampled from the tail 15 and 5 min before starting insulin infusion and 30, 20, 10 minutes before the end of the experiment.
Blood samples were centrifuged in order to obtain serum. Serum was snap frozen on dry ice and, once all the samples were available, 5 μl serum was transferred to 25 μl dionized water and then mixed with 25 μl of 0.1N ZnSO4. Samples were precipitated with addition of 25 μl of 0.1N Ba(OH)2. After centrifugation, the supernatant was dried overnight, resuspended in water, and counted in scintillation liquid. Glucose turnover was calculated as the ratio of tritiated glucose infusion rate over the specific activity of blood glucose.

[5] = test system: Zucker diabetic fatty (ZDF) rats; test: Glucose-stimulated insulin secretion in intact ZDF rats and isolated islets; assay type: in vivo, rat
Method: Rats were fasted for 12 h, and tail blood was collected to determine basal insulin and c-peptide levels. Rats were then given glucose (3 g/kg) orally by gavage, and, 5 minutes later, tail blood was again collected for determining insulin and c-peptide levels, with the difference over baseline insulin considered as a measure of glucose-induced insulin release, and the comparison with parallel changes in c-peptide levels used to assess the role of insulin production vs. clearance in the observed change in plasma insulin levels.
After 4 days recovery, pancreata from treated animals were inflated via the common bile duct with a solution of LIBERASE™ TL Research Grade (1.18 U/ml, Roche Diagnostics) and digested for 30 min at 37° C. Islets were purified on a discontinuous Ficoll gradient (GE HEALTHCARE) and hand-picked under a stereomicroscope for immediate assessment of […] function by static incubation. Right after isolation, batches of 4 islets were pre-incubated for 2 h in RPMI 1640 containing NaHCO3 (2 g/l), HEPES (25 mM), 10% (v/v) neonatal calf serum (Invitrogen), pH 7.2, and 0.5 g/L glucose at 37° C. in an incubator containing 5% CO2. This was followed by successive 1 h incubations in the presence of 0.5, 1, 1.5, 2, and 3 g/L glucose. Supernatants were collected in each step for insulin quantification (Crystal Chem Inc). […]

[6] = test system: Zucker diabetic fatty (ZDF) rats; test: 12-week JD5037 treatment of 6-week-old pre-diabetic ZDF rats; assay type: in vivo, rat; conditions: pre-diabetic 6-week-old ZDF rats, daily JD5037 for 3 months
Method: as §4, with “In the second protocol, blood samples were taken weekly to assess the progression of T2DM by measuring blood glucose and monthly to measure insulin and c-peptide levels.” left out
Blood glucose levels were determined using the Elite glucometer (Bayer, Pittsburgh, Pa.). […] Plasma insulin was measured using the Ultra Sensitive rat Insulin ELISA kit (Crystal Chem Inc). Hemoglobin A1c was determined using the Rat Hemoglobin A1c (HbA1c) assay kit (Crystal Chem) and c-peptide was quantified by ELISA (C-peptide (rat) ELISA, ALPCO). Serum leptin and adiponectin were determined by ELISA (B-Bridge International). α-amylase, lipase, and uric acid concentrations were determined using commercially available colorimetric kits (BioAssay Systems). […]

[7] = ZDF rats, 3 mg/kg JD5037 oral, 28 days
[8] = plasma, ZDF rats, 3 mg/kg/day JD5037 for 28 days, mean ± SEM

In the case of CCCCC/C=C\C/C=C\C/C=C\C/C=C\CCCC(=O)NCCO [anandamide], the “concentration at which peak changes in cytokine secretion were observed” value ([1]; RAW264.7 cells) is reported as 0.5 µM, the “secretion of IL-1β, TNF-α, and MCP-1” value ([1]; RAW264.7 cells) is reported as “markedly increased” and the CB2R expression ([1]; RAW264.7 macrophages) is reported as “without affecting”. For the same compound, the “expression of Nlrp3 and caspase-1” value ([1]; RAW264.7 macrophages) was “robustly increased”, the “maximally effective concentration for reducing insulin gene expression” value [2] was 0.5 µM and the “pro- and anti-apoptotic gene expression” value ([2]; 0.5 μM anandamide) was “little or no effect”. The “levels of IL-1β, TNF-α, and MCP-1 in the medium” value ([2]; 4 h) was “did not affect”.

In the case of CC(C)[C@H](N/C(=N\S(=O)(=O)c1ccc(Cl)cc1)N1C[C@H](c2ccccc2)C(c2ccc(Cl)cc2)=N1)C(N)=O [JD5037, (S)-2-((S,E)-3-(4-chlorophenyl)-N′-((4-chlorophenyl)sulfonyl)-4-phenyl-4,5-dihydro-1H-pyrazole-1-carboximidamido)-3-methylbutanamide], the “elevated Nlrp3, IL-1β, IL-18, p65 NFκB, caspase-1 activity, TXNIP and IL-1 receptor mRNA” value ([3]; ZDF islets/pancreas, JD5037 28 days) is reported as “completely reversed”, the “ASC mRNA” value ([3]; ZDF pancreas, JD5037 4 weeks) is reported as “normalized” and the “small increase in AIM-2 expression” value ([3]; ZDF pancreas, JD5037 4 weeks) is reported as “unaffected”. The “expression of the IL-1R antagonist” value ([3]; ZDF pancreas, JD5037 28 days) was “increased”, the “body weight or adiposity” value [3, 7] was “did not affect” and the food intake [3, 7] was “small reduction”. For the same compound, the “hyperglycemia of ZDF rats” value [3, 7] was “completely reversed”, the “hyperinsulinemia (along with increased C-peptide levels)” value [3, 7] was “paradoxically enhanced” and the “steatosis, associated hepatocellular damage, increased lipogenic gene expression” value [3, 7] was “greatly attenuated”. For the same compound, the “fasting blood glucose and HbA1c” value ([3]; ZDF rats, 3 mg/kg JD5037 oral, 28 days, FIG. 1c) was “normalizes”, the Tunel-positive islet cells ([3]; ZDF rats, JD5037 4 weeks) was “reduced number” and the “decreased plasma adiponectin and pancreatic expression of adipoR1 and adipoR2” value ([3]; ZDF rats, JD5037 4 weeks) was “reversed”. The “insulin mRNA and protein in ZDF islets” value ([3]; ZDF rats, JD5037 4 weeks) was “normalized”, the “reduced pancreatic expression of glucokinase (Glck) and Glut2” value ([3]; ZDF rats, JD5037 4 weeks) was “normalized” and the “increased pancreatic anandamide levels” value ([3]; ZDF rats, JD5037 4 weeks, LC/MS/MS) was “normalized”. The “macrophage infiltration of islets” value ([3]; ZDF rats, JD5037 28 days) was “reduced”, the “rise in expression of CB1R in islets” value ([3]; ZDF vs. lean rats, JD5037 4 weeks) was “reversed” and the Adiponectin [3, 8] was 5.70 ± 0.07 µg/mL. The Cholesterol [3, 8] was 104.8 ± 3.85 mg/dL, the IL-1β [3, 8] was 7.63 ± 0.78 ng/mL and the Leptin [3, 8] was 9.48 ± 0.31 ng/mL. The TG [3, 8] was 817.6 ± 31.36 mg/dL, the TNF-α [3, 8] was 0.83 ± 0.07 pg/mL and the Uric acid [3, 8] was 2.57 ± 0.04 µg/mL. The insulin resistance [4] was “not significantly affected”, the peripheral glucose uptake ([4]; FIG. 1d) was “slightly improves” and the “elevated basal insulin levels” value ([5]; ZDF rats, JD5037-treated) was “did not affect”. The “GSIS (glucose-stimulated insulin secretion)” value ([5]; both in vivo and in vitro (isolated islets)) was “restored”, the hyperglycemia [6] was “attenuated and its development delayed” and the “rapid decline in plasma insulin and c-peptide” value [6] was “largely prevented”.

With “IL-1R antagonist: IL-1 receptor antagonist used at 10 ng/mL in MIN6 cells” the “IL-1β-induced reduction of CB1R mRNA and protein” value ([2]; IL-1R antagonist 10 ng/mL) was “blocked”.

For IL-1β: interleukin-1β (Abcam Ab9723), the “maximally effective concentration for reducing insulin gene expression” value [2] was 30 ng/mL, the “CB1R mRNA and protein” value ([2]; 30 ng/mL IL-1β) was “drastically reduced” and the “anti-apoptotic genes Bcl-2 and Bcl-xl” value ([2]; 30 ng/mL IL-1β) was “drastically suppressed”. The “pro-apoptotic genes Bak and Bax” value ([2]; 30 ng/mL IL-1β) was “markedly induced”.
